Laboratory results as given in paper PMC9104286, “Characterization of a Cutibacterium acnes Camp Factor 1-Related Peptide as a New TLR-2 Modulator in In Vitro and Ex Vivo Models of Inflammation” (International Journal of Molecular Sciences, 2022).

Tests used:
C. acnes 6919 = test: Bacterial growth monitored at 620 nm; assay type: cell-based, Cutibacterium acnes; conditions: C. acnes 6919, 5 days; B2 at 1 to 128 μM; antibiotics as positive control; growth at 620 nm
Text: (§1) As a positive control for growth inhibition, we cultured the bacteria in the presence of the antibiotic ampicillin, doxycycline and clindamycin.
(§2) Bacterial growth was monitored at 620 nm.
(§3) We used 24 strains of C. acnes in the study: strain 6919 (Type IA1) from the American Type Culture Collection (Manassas, VA) and strains isolated from various infections (13 bone and joint infections, 1 case of pleuritis, 1 case of appendicitis, 1 case of pericarditis, 1 case of pneumonia, 3 cutaneous infections, 1 case of bacteremia and 2 ascitic fluid infections). C. acnes strains RON (IA1), TRI (IA2), LIE (IA2), CHR (IA2), GUE (IB) and PIE (IB) were isolated from patients with joint infections. All these strains were kindly provided by Dr. Philippe Morand from the Bacteriology Department at Cochin Hospital, Paris, France. C. acnes strains were grown under anaerobic conditions in liquid or solidified reinforced clostridial medium (RCM; Difco Laboratories, Detroit, MI, USA), in a GasPak™ EZ Anaerobic Container System (Becton Dickinson & Co, Franklin Lakes, NJ, USA) at 37 °C. For routine culture, 100 mL of RCM was used and the bacteria were harvested after 5 days at 37 °C, by centrifugation at 7,000 x g for 10 min and 4 °C. The pellets were pooled and washed in about 30 mL cold sterile phosphate-buffered saline (PBS) (1.5 mM KH2PO4, 2.7 mM Na2HPO4.7H2O, 0.15 M NaCl (pH 7.4)), and were then centrifuged again, as described above. The final bacterial pellet was suspended in sterile PBS (1:10 based on the volume of the culture). Staphylococcus aureus (ATCC #25923) and Staphylococcus epidermidis (ATCC #12228) were grown in tryptic soy broth (TSB) and brain heart infusion (BHI) (Sigma-Aldrich, Saint-Louis, MO, USA) under aerobic conditions at 37 °C.

S. epidermidis = test: Bacterial growth monitored at 620 nm; assay type: cell-based, Staphylococcus epidermidis; conditions: 24 h; B2 at 1 to 128 μM; antibiotics as positive control; growth at 620 nm
Text: as §1, §2, §3

S. aureus = test: Bacterial growth monitored at 620 nm; assay type: cell-based, Staphylococcus aureus; conditions: 24 h; B2 at 1 to 128 μM; antibiotics as positive control; growth at 620 nm
Text: as §1, §2, §3

human skin explants = test: Ex vivo human skin explants, induction of proinflammatory molecules by stimuli; assay type: cell-based; conditions: skin explants stimulated 18 h, LPS or PGN 5 µg/ml, Luminex, culture supernatant, mean ± SEM, n = 6

Molecule: CC1(C)S[C@@H]2[C@H](NC(=O)[C@H](N)c3ccccc3)C(=O)N2[C@H]1C(=O)O [ampicillin]
- effect on growth of C. acnes (in words) (C. acnes 6919): susceptible
- effect on growth of S. epidermidis (in words) (S. epidermidis): resistant
- effect on growth of S. aureus (in words) (S. aureus): susceptible

Molecule: CCC[C@@H]1C[C@@H](C(=O)N[C@@H]([C@H]2O[C@H](SC)[C@H](O)[C@@H](O)[C@H]2O)[C@H](C)Cl)N(C)C1 [clindamycin]
- effect on growth of C. acnes (in words) (C. acnes 6919): susceptible
- effect on growth of S. epidermidis (in words) (S. epidermidis): susceptible
- effect on growth of S. aureus (in words) (S. aureus): susceptible

Molecule: C[C@H]1c2cccc(O)c2C(=O)C2=C(O)[C@]3(O)C(=O)C(C(N)=O)=C(O)[C@@H](N(C)C)[C@@H]3[C@@H](O)[C@@H]21 [doxycycline]
- effect on growth of C. acnes (in words) (C. acnes 6919): susceptible
- effect on growth of S. epidermidis (in words) (S. epidermidis): susceptible
- effect on growth of S. aureus (in words) (S. aureus): susceptible

Molecule: lipopolysaccharide [LPS]
- GM-CSF levels (human skin explants): 765 ± 30 pg/mL
- IL-1β levels (human skin explants): 392 ± 5.6 pg/mL
- IL-10 production (human skin explants): 10 ± 0.3 pg/mL
- TNF-α production (human skin explants): 22 ± 1.7 pg/mL

Molecule: peptidoglycan [PGN]
- GM-CSF levels (human skin explants): 4733 ± 218 pg/mL
- IL-1β levels (human skin explants): 23 ± 0.8 pg/mL
- IL-10 production (human skin explants): 35 ± 1.4 pg/mL
- TNF-α production (human skin explants): 126 ± 9.3 pg/mL
